Like-named read-outs stand apart in the source and are kept apart here.
Legend:
glucocorticoid receptor = glucocorticoid receptor (Homo sapiens, UniProt P04150); details: concentration ≦10 μM, A549 cells
Experimental: A549 cells, which contain endogenous glucocorticoid receptor, were stably transfected with an AP-1 DNA binding site attached to the luciferase gene. […] Cells are plated the day before the assay at approximately 40000 cells/well. […] Activity is measured by analysis in a luminometer as compared to control experiments treated with buffer or dexamethasome.

AR [1] = target: T1, AR (Rattus norvegicus, UniProt P15207)
T1 sequence (P15207 1-902): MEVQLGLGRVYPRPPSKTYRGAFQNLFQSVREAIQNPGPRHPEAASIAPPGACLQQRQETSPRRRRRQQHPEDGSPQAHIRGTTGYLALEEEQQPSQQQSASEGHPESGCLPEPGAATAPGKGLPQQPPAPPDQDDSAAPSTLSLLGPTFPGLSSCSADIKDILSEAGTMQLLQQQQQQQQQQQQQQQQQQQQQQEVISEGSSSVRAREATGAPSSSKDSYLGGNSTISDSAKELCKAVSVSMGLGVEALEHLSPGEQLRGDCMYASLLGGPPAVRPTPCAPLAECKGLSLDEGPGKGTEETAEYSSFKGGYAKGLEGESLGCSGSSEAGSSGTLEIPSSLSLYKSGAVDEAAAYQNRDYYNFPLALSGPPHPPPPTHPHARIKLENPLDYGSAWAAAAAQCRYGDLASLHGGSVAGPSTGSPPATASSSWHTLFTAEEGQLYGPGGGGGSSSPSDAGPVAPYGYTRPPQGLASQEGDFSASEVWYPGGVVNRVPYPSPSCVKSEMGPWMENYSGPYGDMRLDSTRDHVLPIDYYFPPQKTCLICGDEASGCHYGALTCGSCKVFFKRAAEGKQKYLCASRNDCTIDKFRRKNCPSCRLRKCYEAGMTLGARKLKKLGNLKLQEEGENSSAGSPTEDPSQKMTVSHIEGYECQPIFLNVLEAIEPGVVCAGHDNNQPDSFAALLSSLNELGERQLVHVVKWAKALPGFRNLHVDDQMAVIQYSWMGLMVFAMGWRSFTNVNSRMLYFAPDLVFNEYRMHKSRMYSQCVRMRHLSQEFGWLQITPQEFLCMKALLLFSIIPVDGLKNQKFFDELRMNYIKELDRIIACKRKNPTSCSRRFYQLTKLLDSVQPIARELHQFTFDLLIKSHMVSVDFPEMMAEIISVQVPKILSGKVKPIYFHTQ
From the text: The activity of compounds of the present invention as AR agonists was investigated in an immature male rat model, a recognized test of anabolic effects in muscle and sustaining effects in sex organs for a given compound, as described in L. G. Hershberger et al., Proc. Soc. […] Yak. Ken. Nem.
The basis of this assay lies in the well-defined action of androgenic agents on the maintenance and growth of muscle tissues and sexual accessory organs in animals and man. […] J. Anat. […] I. Quantitative data” Boll.-Soc. Ital. Biol. Sper. […] II. Electron-microscopic observations” Boll.-Soc. Ital. Biol. Sper. […] As described above, the effects of androgens on maintenance of male sexual accessory organs, such as the prostate and seminal vesicles, is well described. Castration results in rapid involution and atrophy of the prostate and seminal vesicles. This effect can be reversed by exogenous addition of androgens. Since both the levator ani muscle and the male sex organs are the tissues most responsive to the effects of androgenic agents, this model is used to determine the androgen dependent reversal of atrophy in the levator ani muscle and the sex accessory organs in immature castrated rats. Sexually mature rats (200-250 g, 6-8 weeks-old, Sprague-Dawley, Harlan) were acquired castrated from the vendor (Taconic). […]

AR [2] = target: T1, AR; remark: listed apart in the source

Chain of glucocorticoid receptor (P04150 whole entry): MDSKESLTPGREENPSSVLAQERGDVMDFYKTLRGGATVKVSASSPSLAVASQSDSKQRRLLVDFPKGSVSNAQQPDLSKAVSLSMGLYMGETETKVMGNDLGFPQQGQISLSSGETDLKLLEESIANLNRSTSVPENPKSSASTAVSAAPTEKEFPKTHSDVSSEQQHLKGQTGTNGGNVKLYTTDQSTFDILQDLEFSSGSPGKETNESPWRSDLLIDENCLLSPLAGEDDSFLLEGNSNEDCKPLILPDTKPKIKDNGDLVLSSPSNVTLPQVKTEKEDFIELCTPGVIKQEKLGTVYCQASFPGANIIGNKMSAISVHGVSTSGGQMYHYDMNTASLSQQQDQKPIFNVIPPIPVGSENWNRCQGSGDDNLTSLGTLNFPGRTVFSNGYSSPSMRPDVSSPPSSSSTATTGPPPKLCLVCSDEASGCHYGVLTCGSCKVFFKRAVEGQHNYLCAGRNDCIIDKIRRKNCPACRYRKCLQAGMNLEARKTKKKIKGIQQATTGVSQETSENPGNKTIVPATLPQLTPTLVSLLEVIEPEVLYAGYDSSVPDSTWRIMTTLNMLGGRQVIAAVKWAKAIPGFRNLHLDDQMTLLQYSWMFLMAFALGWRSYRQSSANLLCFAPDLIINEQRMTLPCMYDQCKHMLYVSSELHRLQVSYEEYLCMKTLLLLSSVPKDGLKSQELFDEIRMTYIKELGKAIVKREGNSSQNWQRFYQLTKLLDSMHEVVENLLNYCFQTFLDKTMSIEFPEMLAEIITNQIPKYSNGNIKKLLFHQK

Structure (SMILES): C[C@@H]1C[C@H]2[C@@H]3CCC4=CC(=O)C=C[C@]4(C)[C@@]3(F)[C@@H](O)C[C@]2(C)[C@@]1(O)C(=O)CO [dexamethasone]
- suppression of activity (% inhibition of the reporter system vs buffer control with 10 ng/ml PMA) (glucocorticoid receptor): ~65%

Structure (SMILES): CCC(=O)O[C@H]1CC[C@H]2[C@@H]3CCC4=CC(=O)CC[C@]4(C)[C@H]3CC[C@]12C [testosterone propionate, Testosterone Propionate]
- EC50 (increase in organ weight) (AR [1]; castrated rats): ~0.03 mg
- potency relative to free T (AR [1]; organ weight increase): 10-30 fold
- ED80 (AR [2]; immature castrated rat model): 0.1 mg
- EC50 (increase in organ weight) (AR [2]; immature castrated rats): ~0.03 mg
- potency relative to free T (AR [2]; organ weight increase, immature castrated rats): 10-30 fold

Source: US7655689B2, “Fused heterocyclic succinimide compounds and analogs thereof, modulators of nuclear hormone receptor function” (Bristol-Myers Squibb Company, priority 2000, dated 2010)
